Values of other authors, collected in patent US20040067267A1, “Process for preparation of cholesterol lowering compositions from garlic” (priority 2002, published 2004).

Assays:
[1] = system: mice
[2] = patients with primary hypercholesterolemia (Hoeg et al. 1984)
[3] = target: T1, HMG CoA reductase (Homo sapiens, UniProt P04035); settings: for lowering of plasma LDL cholesterol levels: alone; for decrease of LDL levels: given along with bile acid binding resin (Bilheimer et al 1983)
T1 sequence (P04035 1-888): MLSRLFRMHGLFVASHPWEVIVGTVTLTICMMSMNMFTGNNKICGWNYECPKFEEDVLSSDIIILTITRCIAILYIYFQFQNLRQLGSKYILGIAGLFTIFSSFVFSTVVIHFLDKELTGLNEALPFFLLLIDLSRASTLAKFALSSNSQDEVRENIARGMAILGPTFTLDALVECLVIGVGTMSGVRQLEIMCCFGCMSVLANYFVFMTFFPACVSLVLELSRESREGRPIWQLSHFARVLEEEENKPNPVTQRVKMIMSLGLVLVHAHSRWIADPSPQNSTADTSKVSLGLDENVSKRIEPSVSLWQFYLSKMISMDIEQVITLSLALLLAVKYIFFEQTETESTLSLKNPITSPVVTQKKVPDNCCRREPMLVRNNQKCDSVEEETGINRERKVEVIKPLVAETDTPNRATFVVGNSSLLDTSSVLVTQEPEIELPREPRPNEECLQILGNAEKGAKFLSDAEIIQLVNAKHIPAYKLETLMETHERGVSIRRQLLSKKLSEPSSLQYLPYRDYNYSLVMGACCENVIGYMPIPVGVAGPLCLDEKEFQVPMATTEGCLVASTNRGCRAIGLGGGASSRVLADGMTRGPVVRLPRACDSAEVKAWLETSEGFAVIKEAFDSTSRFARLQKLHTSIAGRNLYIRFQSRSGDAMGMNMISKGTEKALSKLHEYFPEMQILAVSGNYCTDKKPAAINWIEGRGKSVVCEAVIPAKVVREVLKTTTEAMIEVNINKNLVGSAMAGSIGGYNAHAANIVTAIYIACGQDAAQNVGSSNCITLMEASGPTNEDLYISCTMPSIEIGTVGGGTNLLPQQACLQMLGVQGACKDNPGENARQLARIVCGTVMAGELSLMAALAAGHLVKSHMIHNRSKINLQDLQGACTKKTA

| Compound | oral LD 50, female [1] | oral LD 50, male [1] | reduction of LDL cholesterol [2] | lowering of plasma LDL cholesterol levels [3] | decrease of LDL levels [3] |
| --- | --- | --- | --- | --- | --- |
| C=CCSC[C@H](N)C(=O)O [s-allyl-L-cysteine] | 9390 mg/kg b.wt | 8890 mg/kg b.wt |  |  |  |
| C=CCS[S+]([O-])CC=C (stereo not shown) [allicin] | 363 mg/kg b.wt | 309 mg/kg b.wt |  |  |  |
| C=CCSSCC=C [diallyldisulfide] | 130 mg/kg b.wt | 145 mg/kg b.wt |  |  |  |
| NC[C@@H]1O[C@H](O[C@H]2[C@@H](O)[C@H](O[C@@H]3[C@@H](O)[C@H](N)C[C@H](N)[C@H]3O[C@H]3O[C@H](CN)[C@@H](O)[C@H](O)[C@H]3N)O[C@@H]2CO)[C@H](N)[C@@H](O)[C@@H]1O [Neomycin] |  |  | 15-20% |  |  |
| C=CCSCC=C [diallyl sulfide] | 1805 mg/kg b.wt | 2029 mg/kg b.wt |  |  |  |
| mevinolin |  |  |  | 30% | 50% |
| CC[C@H](C)C(=O)O[C@H]1CCC=C2C=C[C@H](C)[C@H](CC[C@@H]3C[C@@H](O)CC(=O)O3)[C@H]21 [Compaction] |  |  |  | 30% | 50% |
